According to patent US12594268B2, “Methods of treating Fabry disease in patients having a mutation in the GLA gene” (Amicus Therapeutics, Inc., priority 2018, dated 2026):
Numbering of substitutions follows the chain as printed.

Key:
Format in all cases: cell-based
[1] = molecular target: T1, α-Gal A mutant form G35A (Homo sapiens, UniProt P06280, G35A); assay: α-Gal A activity in lysates of transfected HEK-293 cells, G35A
T1 construct: expressed in transfected cells; host or cells: HEK-293
T1 sequence (P06280 32-429 G35A): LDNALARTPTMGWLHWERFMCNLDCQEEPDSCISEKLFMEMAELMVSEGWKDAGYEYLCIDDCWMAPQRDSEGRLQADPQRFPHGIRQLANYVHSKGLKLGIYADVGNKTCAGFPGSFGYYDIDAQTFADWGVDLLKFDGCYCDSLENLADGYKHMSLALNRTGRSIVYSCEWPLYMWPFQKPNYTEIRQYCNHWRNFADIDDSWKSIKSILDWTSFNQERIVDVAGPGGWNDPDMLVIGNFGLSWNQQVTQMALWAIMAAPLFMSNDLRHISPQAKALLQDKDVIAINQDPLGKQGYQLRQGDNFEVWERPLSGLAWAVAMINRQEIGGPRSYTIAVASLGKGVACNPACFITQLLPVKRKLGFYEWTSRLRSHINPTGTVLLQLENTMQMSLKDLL
Experimental: (§1) Baseline and 10 μM migalastat α-Gal A activity: Differences in the α-Gal A activity between lysates incubated in the absence and presence of 10 μM migalastat were determined using a one-tailed, Mann Whitney U test; an increase at 10 μM migalastat with a p<0.05 was considered significant.
(§2) 10 μM migalastat α-Gal A activity (% WT)=(α-Gal A activity in mutant transfected cell lysates incubated with 10 μM migalastat÷α-Gal A activity in wild-type transfected cell lysates without migalastat)*100.
(§3) Absolute increase (% WT)=is the 10 μM migalastat α-Gal A activity (% WT) minus the baseline α-Gal A activity (% WT).
(§4) Relative increase is the 10 μM migalastat α-Gal A activity in mutant transfected cell lysates÷baseline α-Gal A activity in mutant transfected cell lysates incubated without migalastat.

[2] = molecular target: T2, α-Gal A mutant form M96V (Homo sapiens, UniProt P06280, M96V); assay: α-Gal A activity in lysates of transfected HEK-293 cells, M96V
T2 construct: expressed in transfected cells; host or cells: HEK-293
T2 sequence (P06280 32-429 M96V): T1 sequence (P06280 32-429 G35A) with A4G, M65V
Experimental: as §1, §2, §3, §4

[3] = molecular target: T3, α-Gal A mutant form K391E (Homo sapiens, UniProt P06280, K391E); assay: α-Gal A activity in lysates of transfected HEK-293 cells, K391E
T3 construct: expressed in transfected cells; host or cells: HEK-293
T3 sequence (P06280 32-429 K391E): T1 sequence (P06280 32-429 G35A) with A4G, K360E
Experimental: as §1, §2, §3, §4

[4] = molecular target: T4, α-Gal A mutant form Y152D (Homo sapiens, UniProt P06280, Y152D); assay: α-Gal A activity in lysates of transfected HEK-293 cells, Y152D
T4 construct: expressed in transfected cells; host or cells: HEK-293
T4 sequence (P06280 32-429 Y152D): T1 sequence (P06280 32-429 G35A) with A4G, Y121D
Experimental: as §1, §2, §3, §4

[5] = molecular target: T5, α-Gal A mutant form A257V (Homo sapiens, UniProt P06280, A257V); assay: α-Gal A activity in lysates of transfected HEK-293 cells, A257V
T5 construct: expressed in transfected cells; host or cells: HEK-293
T5 sequence (P06280 32-429 A257V): T1 sequence (P06280 32-429 G35A) with A4G, A226V
Experimental: as §1, §2, §3, §4

[6] = 10 μM migalastat minus baseline
[7] = 10 μM migalastat ÷ baseline activity
[8] = HEK-293 lysates, 10 μM migalastat, 5 days, mean ± SEM

OC[C@H]1NC[C@H](O)[C@@H](O)[C@H]1O [migalastat, (2R,3S,4R,5S)-2-(hydroxymethyl) piperdine-3,4,5-triol]
Absolute increase (% WT) [1, 6]: 31.0 % WT | Relative increase [1, 7]: 1.61 | 10 nM migalastat α-Gal A activity ([1]; HEK-293 lysates, 10 nM migalastat as printed, 5 days, mean ± SEM): 31694 ± 1949 nmol/mg/h | 10 μM migalastat α-Gal A activity (% WT) [1, 8]: 82.1 ±5.6 % WT | Absolute increase (% WT) [2, 6]: 24.2 % WT | Relative increase [2, 7]: 2.68 | 10 μM migalastat α-Gal A activity [2, 8]: 14612 ± 1009 nmol/mg/h | 10 μM migalastat α-Gal A activity (% WT) [2, 8]: 38.1 ± 2.4 % WT | Absolute increase (% WT) [3, 6]: 20.0 % WT | Relative increase [3, 7]: 2.03 | 10 μM migalastat α-Gal A activity [3, 8]: 15979 ± 1367 nmol/mg/h | 10 μM migalastat α-Gal A activity (% WT) [3, 8]: 40.4 ± 2.9 % WT | Absolute increase (% WT) [4, 6]: 10.7 % WT | Relative increase [4, 7]: 2.75 | 10 μM migalastat α-Gal A activity [4, 8]: 6594 ± 294 nmol/mg/h | 10 μM migalastat α-Gal A activity (% WT) [4, 8]: 16.7 ± 1.1 % WT | Absolute increase (% WT) [5, 6]: 44.4 % WT | Relative increase [5, 7]: 1.85 | 10 μM migalastat α-Gal A activity [5, 8]: 30313 ± 1981 nmol/mg/h | 10 μM migalastat α-Gal A activity (% WT) [5, 8]: 99.9 ± 4.6 % WT
